From ChEMBL document CHEMBL3603838, “Guanidinium compounds with sub-micromolar activities against Mycobacterium tuberculosis. Synthesis, characterization and biological evaluations” (Bioorg Med Chem, 2015)
Values after ≈ are worked out from the molar mass of the structure shown.

Experiments:
[1] = Cytotoxicity against human MRC5 cells after 24 hrs; assay type: cell-based
[2] = Selectivity index, ratio of CC50 for human MRC5 cells to MIC for Mycobacterium tuberculosis H37Rv; assay type: toxicity, cell-based; conditions: read-out: Selectivity Index
[3] = test system: Mycobacterium tuberculosis; assay: Antimycobacterial activity against Mycobacterium tuberculosis H37Rv after 6 days by MTT assay; assay type: functional, organism-based; conditions: 144 h

N=C(N)NCCc1cc2c(O)c(c1)Cc1cc(CCNC(=N)N)cc(c1O)Cc1cc(CCNC(=N)N)cc(c1O)Cc1cc(CCNC(=N)N)cc(c1O)C2
CC50 at 24 h [1]: > 256 µg/mL | selectivity ratio [2]: > 256 | MIC [3]: 0.8 µM (≈ 0.612 µg/mL)

N=C(N)NCCc1ccc(OCc2ccccc2)cc1
CC50 at 24 h [1]: 26 µg/mL (≈ 96.5 µM) | selectivity ratio [2]: 2.6 | IC50 [3]: 5900 nM | MIC [3]: 25 µM (≈ 6.73 µg/mL)

N=C(N)NCCc1ccc(OCc2ccccc2COc2ccc(CCNC(=N)N)cc2)cc1.O=C(O)C(F)(F)F
CC50 at 24 h [1]: 100 µg/mL | selectivity ratio [2]: 24 | IC50 [3]: 1500 nM | MIC [3]: 6.2 µM

N=C(N)NCCc1ccc(OCc2cccc(COc3ccc(CCNC(=N)N)cc3)c2)cc1.O=C(O)C(F)(F)F
CC50 at 24 h [1]: 34.5 µg/mL | selectivity ratio [2]: 16 | IC50 [3]: 700 nM | MIC [3]: 3.1 µM

N=C(N)NCCc1ccc(OCc2ccc(COc3ccc(CCNC(=N)N)cc3)cc2)cc1.O=C(O)C(F)(F)F
CC50 at 24 h [1]: 21 µg/mL | selectivity ratio [2]: 10 | IC50 [3]: 800 nM | MIC [3]: 3.1 µM

N=C(N)NCCc1ccc(OCc2cc(COc3ccc(CCNC(=N)N)cc3)cc(COc3ccc(CCNC(=N)N)cc3)c2)cc1.O=C(O)C(F)(F)F
CC50 at 24 h [1]: 39.5 µg/mL | selectivity ratio [2]: 49 | IC50 [3]: 350 nM | MIC [3]: 0.8 µM

N=C(N)NCCc1ccc(OCc2cc(COc3ccc(CCNC(=N)N)cc3)c(COc3ccc(CCNC(=N)N)cc3)cc2COc2ccc(CCNC(=N)N)cc2)cc1.O=C(O)C(F)(F)F
CC50 at 24 h [1]: 49 µg/mL | selectivity ratio [2]: 11.5 | IC50 [3]: 500 nM | MIC [3]: 3.2 µM

N=C(N)NCCc1ccc(OCc2c(COc3ccc(CCNC(=N)N)cc3)c(COc3ccc(CCNC(=N)N)cc3)c(COc3ccc(CCNC(=N)N)cc3)c(COc3ccc(CCNC(=N)N)cc3)c2COc2ccc(CCNC(=N)N)cc2)cc1
CC50 at 24 h [1]: 26 µg/mL (≈ 21.2 µM) | selectivity ratio [2]: 1 | IC50 [3]: 3800 nM | MIC [3]: 12.5 µM (≈ 15.3 µg/mL)

O=C(O)c1cn(C2CC2)c2cc(N3CCNCC3)c(F)cc2c1=O [CIPROFLOXACIN]
IC50 [3]: 600 nM | MIC [3]: 2.5 µM (≈ 0.828 µg/mL)

CC[C@@H](CO)NCCN[C@@H](CC)CO [ETHAMBUTOL]
CC50 at 24 h [1]: > 10 µg/mL | selectivity ratio [2]: > 5 | MIC [3]: 9.8 µM (≈ 2 µg/mL)

NNC(=O)c1ccncc1 [ISONIAZID]
CC50 at 24 h [1]: > 10 µg/mL | selectivity ratio [2]: > 125 | IC50 [3]: 220 nM | MIC [3]: 0.6 µM (≈ 0.0823 µg/mL)

CN[C@@H]1[C@H](O[C@H]2[C@H](O[C@H]3[C@H](O)[C@@H](O)[C@H](N=C(N)N)[C@@H](O)[C@@H]3N=C(N)N)O[C@@H](C)[C@]2(O)C=O)O[C@@H](CO)[C@H](O)[C@H]1O [STREPTOMYCIN]
MIC [3]: 0.7 µM (≈ 0.407 µg/mL)
